Non-standard residues stand in square brackets, D forms with d. Residues, ends and D or L forms follow the SMILES beside them. *: point of attachment. Prolinol = OC[C@@H]1CCCN1*; Aib = CC(C)(N)C(=O)O
What was measured:
Alternaria solani = test: Antimicrobial activity against Alternaria solani; assay type: functional, organism-based
Pyricularia oryzae = test: Antimicrobial activity against Pyricularia oryzae; assay type: functional, organism-based
Staphylococcus aureus = test: Antimicrobial activity against Staphylococcus aureus; assay type: functional
Escherichia coli = test: Antimicrobial activity against Escherichia coli; assay type: functional

SMILES: CC[C@@H](C)[C@H](NC(=O)C(C)(C)NC(=O)[C@@H](NC(=O)C(C)(C)NC(=O)C(C)(C)NC(C)=O)C(C)C)C(=O)NC(C)(C)C(=O)NC(C)(C)C(=O)N[C@@H](C)C(=O)NC(C)(C)C(=O)N1CCC[C@H]1CO [ASPERELINE A]
- IC50 (Alternaria solani): > 100 µg/mL
- IC50 (Pyricularia oryzae): > 100 µg/mL
- IC90 (Staphylococcus aureus): > 500 µg/mL
- IC90 (Escherichia coli): > 500 µg/mL

SMILES: CC[C@@H](C)[C@H](NC(=O)C(C)(C)NC(=O)[C@@H](NC(=O)C(C)(C)NC(=O)[C@H](C)NC(C)=O)C(C)C)C(=O)NC(C)(C)C(=O)NC(C)(C)C(=O)N[C@@H](C)C(=O)NC(C)(C)C(=O)N1CCC[C@H]1CO [ASPERELINE B]
- IC50 (Alternaria solani): > 100 µg/mL
- IC50 (Pyricularia oryzae): > 100 µg/mL
- IC90 (Staphylococcus aureus): > 500 µg/mL
- IC90 (Escherichia coli): > 500 µg/mL

SMILES: CC[C@@H](C)[C@H](NC(=O)C(C)(C)NC(=O)[C@@H](NC(=O)C(C)(C)NC(=O)C(C)(C)NC(C)=O)C(C)C)C(=O)NC(C)(C)C(=O)N[C@@H](C)C(=O)N[C@@H](C)C(=O)NC(C)(C)C(=O)N1CCC[C@H]1CO [ASPERELINE C]
- IC50 (Alternaria solani): > 100 µg/mL
- IC50 (Pyricularia oryzae): > 100 µg/mL
- IC90 (Staphylococcus aureus): > 500 µg/mL
- IC90 (Escherichia coli): > 500 µg/mL

SMILES: CC(=O)NC(C)(C)C(=O)NC(C)(C)C(=O)N[C@H](C(=O)NC(C)(C)C(=O)N[C@H](C(=O)NC(C)(C)C(=O)NC(C)(C)C(=O)N[C@@H](C)C(=O)NC(C)(C)C(=O)N1CCC[C@H]1CO)C(C)C)C(C)C [ASPERELINE D] (Ac-[Aib][Aib]V[Aib]V[Aib][Aib]A[Aib]-Prolinol)
- IC50 (Alternaria solani): > 100 µg/mL
- IC50 (Pyricularia oryzae): > 100 µg/mL
- IC90 (Staphylococcus aureus): > 500 µg/mL
- IC90 (Escherichia coli): > 500 µg/mL

SMILES: CC[C@@H](C)[C@H](NC(=O)C(C)(C)NC(=O)[C@@H](NC(=O)C(C)(C)NC(=O)C(C)(C)NC(C)=O)C(C)C)C(=O)NC(C)(C)C(=O)NC(C)(C)C(=O)N[C@@H](CO)C(=O)NC(C)(C)C(=O)N1CCC[C@H]1CO [ASPERELINE E]
- IC50 (Alternaria solani): > 100 µg/mL
- IC50 (Pyricularia oryzae): > 100 µg/mL
- IC90 (Staphylococcus aureus): > 500 µg/mL
- IC90 (Escherichia coli): > 500 µg/mL

SMILES: CC[C@@H](C)[C@H](NC(=O)C(C)(C)NC(=O)[C@@H](NC(=O)[C@@H](NC(=O)C(C)(C)NC(C)=O)C(C)C)C(C)C)C(=O)NC(C)(C)C(=O)NC(C)(C)C(=O)N[C@@H](C)C(=O)NC(C)(C)C(=O)N1CCC[C@H]1CO [ASPERELINE F]
- IC50 (Alternaria solani): > 100 µg/mL
- IC50 (Pyricularia oryzae): > 100 µg/mL
- IC90 (Staphylococcus aureus): > 500 µg/mL
- IC90 (Escherichia coli): > 500 µg/mL

Source: ChEMBL document CHEMBL1152362, “Asperelines A-F, peptaibols from the marine-derived fungus Trichoderma asperellum” (J Nat Prod, 2009)
